# Assay results published in US20250332139A1, “PS[…] AND THEIR USE FOR TREATING […] AND NE[…] DISORDERS” (Transcend Therapeutics, Inc., priority 2021, published 2025).
# Assays:
# 168 GPCRs [1] = target: 168 GPCRs (Homo sapiens, UniProt Q969F8); assay: β-arrestin GPCR screen (PathHunter/GPCRmax), agonist mode; type: cell-based; parameters: host or cells: PathHunter cell lines; conditions: KISS1R; Agonist; 1 uM
# Method: (§1) For agonist determination, cells were incubated with sample to induce response. […] Vehicle concentration was 1%.
# 168 GPCRs [2] = target: 168 GPCRs (Homo sapiens, UniProt O95838); assay: as above; type: cell-based; parameters: host or cells: PathHunter cell lines; conditions: GPCR GLP2R; Agonist mode; 10 uM
# Sequence of 168 GPCRs (Homo sapiens, UniProt O95838) (O95838 whole entry): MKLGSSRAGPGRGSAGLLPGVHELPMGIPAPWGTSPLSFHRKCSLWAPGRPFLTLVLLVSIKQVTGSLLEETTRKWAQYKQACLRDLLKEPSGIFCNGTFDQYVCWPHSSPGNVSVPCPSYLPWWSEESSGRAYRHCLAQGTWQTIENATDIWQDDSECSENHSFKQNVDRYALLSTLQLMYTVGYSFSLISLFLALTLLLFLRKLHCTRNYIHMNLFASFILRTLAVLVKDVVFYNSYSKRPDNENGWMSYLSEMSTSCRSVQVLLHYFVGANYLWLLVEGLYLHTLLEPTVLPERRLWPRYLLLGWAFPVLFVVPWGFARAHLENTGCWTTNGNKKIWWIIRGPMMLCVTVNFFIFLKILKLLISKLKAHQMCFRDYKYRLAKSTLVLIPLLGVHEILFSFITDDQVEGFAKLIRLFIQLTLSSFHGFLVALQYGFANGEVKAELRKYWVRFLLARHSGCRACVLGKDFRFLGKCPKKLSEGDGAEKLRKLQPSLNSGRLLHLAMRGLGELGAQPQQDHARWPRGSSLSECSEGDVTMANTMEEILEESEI
# Method: as §1
# Sequence of 168 GPCRs (Homo sapiens, UniProt Q969F8) (Q969F8 whole entry): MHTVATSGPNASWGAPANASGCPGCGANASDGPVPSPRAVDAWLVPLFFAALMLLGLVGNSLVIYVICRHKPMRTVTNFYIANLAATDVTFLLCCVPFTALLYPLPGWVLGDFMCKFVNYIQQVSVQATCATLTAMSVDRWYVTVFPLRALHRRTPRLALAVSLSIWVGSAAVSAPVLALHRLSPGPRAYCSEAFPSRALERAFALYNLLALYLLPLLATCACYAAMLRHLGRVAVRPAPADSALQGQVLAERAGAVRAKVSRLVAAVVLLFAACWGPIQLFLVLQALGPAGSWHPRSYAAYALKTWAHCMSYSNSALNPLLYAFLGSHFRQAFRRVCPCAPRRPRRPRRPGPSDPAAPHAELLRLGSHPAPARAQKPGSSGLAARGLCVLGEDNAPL
smiles,measurement,setting,value
"CNC(C)C(=O)c1ccc2c(c1)OCO2 (centres unmarked) [methylone, 3,4-methylenedioxy-N-methylcathinone]",activity at 1 µM,168 GPCRs [1],~-5%
same,activity at 10 µM,168 GPCRs [2],-1%
